Test results taken from US6380158B1, “Motilin homologs” (ZymoGenetics, Inc., priority 1997, dated 2002).

How the values were obtained:
[1] = tested on: antral portion of the stomach; experiment: Rat stomach contraction in vivo: topical application between two transducing crystals on the antrum; design: species or system Sprague-Dawley rats
Description: Two male Sprague-Dawley rats, approximately 12 weeks old (Harlan, Indianapolis, Ind.) were anesthetized with urethane and their stomachs were exposed through a small abdominal incision. Two 2.4 mm transducing crystals (Sonometrics, Ontario, Canada) were placed on the antral portion of the stomach such that circular contractions could be monitored as a change in the distance between the two crystals. The crystals were attached with VETBOND TISSUE ADHESIVE (3M, St. Paul, Minn.).
The amplitude of the NE-induced decrease was approximately 50% of the acetylcholine-induced increase in distance. Both responses were transient.
A negative control of 10 μl of phosphate buffer solution (PBS) applied topically between the crystals had no effect.
A 14 amino acid zsig33 peptide (from amino acid residue 24 (Gly) to amino acid residue 37 (Gln) of SEQ ID NO: 2) was dissolved in PBS) and 10 μl was applied topically for a final concentration of 1 μg, 10 μg or 100 μg.

ob/ob mice = experiment: Oral glucose challenge in ob/ob mice after oral gavage of the peptide (serum glucose levels); format: in vivo; settings: 100 μg orally, 30 minutes prior to oral glucose challenge
Experimental: Eight female ob/ob mice, approximately 6 weeks […] old (Jackson Labs, Bar Harbor, Me.) were adapted to a 4 hour daily feeding schedule for two weeks. After two weeks on the feeding schedule, the mice were give 100 μg of a 14 amino acid amino zsig33 peptide (from amino acid residue 24 (Gly) to amino acid residue 37 (Gln) of SEQ ID NO: 2) in 100 μl sterile 0.1% BSA by oral gavage, immediately after their eating period (post-prandially). Thirty minutes later, the mice were challenged orally with a 0.5 ml volume of 25% glucose. Retroorbital bleeds were done to determine serum glucose levels. Blood was drawn prior to zsig33 dosing, prior to oral glucose challenge, and at 1, 2, 4, and 20 hours following the glucose challenge.

[2] = 10 μl of 1 μM applied topically, anesthetized rats

Molecule | change in crystal distance (stomach contractions) ([1]; 1 μg in 10 μl PBS applied topically) | change in crystal distance (rate and amplitude of contractions) ([1]; 10 μg in 10 μl PBS applied topically) | change in crystal distance (rate and amplitude of contractions) ([1]; 100 μg in 10 μl PBS applied topically) | post-prandial glucose absorption (serum glucose levels) (ob/ob mice) | amplitude of the NE-induced decrease relative to the acetylcholine-induced increase in distance [1, 2] | change in the distance between the two crystals (circular contractions of the stomach) [1, 2]
zsig33 peptide: 14 amino acid zsig33 peptide, from amino acid residue 24 (Gly) to amino acid residue 37 (Gln) of SEQ ID NO: 2 (GSSFLSPEHQRVQQ) | sustained, rhythmic increase and decrease in crystal distance | enhanced responses in both rate and amplitude | enhanced responses in both rate and amplitude | enhanced post-prandial glucose absorption | – | –
NC[C@H](O)c1ccc(O)c(O)c1 [norepinephrine, reference compound] | – | – | – | – | approximately 50% | reduction in the distance between the two crystals
